Experimental data reported in patent publication US20230295130A1, “COMPOUND USEFUL AS CDK7 KINASE INHIBITOR AND USE THEREOF” (TYK MEDICINES, INC., priority 2020, published 2023).
pIC50: −log10 of the molar value.

target: CDK12 (aa686-1082)/Cyclin K (Homo sapiens (Human), UniProt Q9NYV4); assay: Enzyme activity test, mobility shift assay (Table 1); type: biochemical; settings: not given
Procedure: (§1) The compound powder was dissolved in 100% DMSO to prepare a 10 mM storage solution. The storage solution was further diluted to 0.5 mM as the initial concentration, and continuously diluted 3 times to obtain 10 compound solutions with different concentrations. The compound and enzyme were pre-incubated for 0 minutes and 60 minutes, respectively, using duplicate detection. Compound Staurosporine having a structural formula of
(§2) was used as a positive control, and Mobility shift assay method was used to detect CDK kinase (such as CDK7, CDK9, CDK12 and CDK2) activity of the compounds.

CDK12 (aa686-1082)/Cyclin K, sequence (Q9NYV4 686-1082): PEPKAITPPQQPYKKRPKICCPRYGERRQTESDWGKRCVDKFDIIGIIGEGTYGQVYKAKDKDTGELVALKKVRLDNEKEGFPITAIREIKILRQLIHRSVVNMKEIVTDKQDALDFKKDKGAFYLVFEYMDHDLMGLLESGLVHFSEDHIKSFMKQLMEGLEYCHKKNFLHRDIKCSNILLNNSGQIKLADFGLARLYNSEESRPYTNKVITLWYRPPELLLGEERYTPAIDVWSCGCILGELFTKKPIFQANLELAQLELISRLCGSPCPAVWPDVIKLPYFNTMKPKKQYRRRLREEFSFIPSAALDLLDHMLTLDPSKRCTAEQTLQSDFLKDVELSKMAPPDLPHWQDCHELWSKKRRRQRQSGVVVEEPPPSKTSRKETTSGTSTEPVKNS
CDK12 (aa686-1082)/Cyclin K, sequence (O75909 whole entry partner, the tested form may be a part): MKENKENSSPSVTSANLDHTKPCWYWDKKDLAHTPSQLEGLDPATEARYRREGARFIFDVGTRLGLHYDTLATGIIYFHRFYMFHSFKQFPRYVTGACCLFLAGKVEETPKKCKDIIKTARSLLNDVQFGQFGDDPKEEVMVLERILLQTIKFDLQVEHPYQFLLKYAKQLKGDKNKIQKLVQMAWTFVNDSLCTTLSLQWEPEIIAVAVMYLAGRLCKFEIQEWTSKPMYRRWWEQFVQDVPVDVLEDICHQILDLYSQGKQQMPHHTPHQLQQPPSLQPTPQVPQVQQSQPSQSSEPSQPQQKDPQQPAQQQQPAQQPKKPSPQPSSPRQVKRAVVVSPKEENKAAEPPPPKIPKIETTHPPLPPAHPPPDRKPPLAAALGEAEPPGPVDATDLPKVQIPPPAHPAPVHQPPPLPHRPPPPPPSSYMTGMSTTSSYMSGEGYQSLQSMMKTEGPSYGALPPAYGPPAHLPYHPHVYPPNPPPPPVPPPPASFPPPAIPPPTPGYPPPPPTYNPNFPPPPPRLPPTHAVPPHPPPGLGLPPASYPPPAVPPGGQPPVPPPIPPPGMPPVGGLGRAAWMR

Structure (SMILES)	pIC50
CN[C@@H]1C[C@H]2O[C@@](C)([C@@H]1OC)n1c3ccccc3c3c4c(c5c6ccccc6n2c5c31)C(=O)NC4 [Staurosporine, reference compound]	< 6.30

same assay, conditions: 2 mM ATP; read-out: CDK12 kinase IC50

Structure (SMILES)	pIC50
COC(=O)Nc1ccc2c(-c3nc(O[C@H]4CCCNC4)ncc3C(F)(F)F)c[nH]c2c1Br [Example T-02]	< 6.30

target: CDK2/Cyclin El (Homo sapiens (Human), UniProt P24941); assay: as above; type: biochemical; settings: 2 mM ATP; read-out: CDK2 kinase IC50
Procedure: as §1, with “detection.” for “detection. Compound Staurosporine having a structural formula of”
as §2

Structure (SMILES)	pIC50
COC(=O)Nc1ccc2c(-c3nc(O[C@H]4CCCNC4)ncc3C(F)(F)F)c[nH]c2c1Br [Example T-02]	< 6.30

target: CDK9/Cyclin Tl (Homo sapiens (Human), UniProt P50750); assay: as above; type: biochemical; settings: 2 mM ATP; read-out: CDK9 kinase IC50
Sequence (P50750 whole entry): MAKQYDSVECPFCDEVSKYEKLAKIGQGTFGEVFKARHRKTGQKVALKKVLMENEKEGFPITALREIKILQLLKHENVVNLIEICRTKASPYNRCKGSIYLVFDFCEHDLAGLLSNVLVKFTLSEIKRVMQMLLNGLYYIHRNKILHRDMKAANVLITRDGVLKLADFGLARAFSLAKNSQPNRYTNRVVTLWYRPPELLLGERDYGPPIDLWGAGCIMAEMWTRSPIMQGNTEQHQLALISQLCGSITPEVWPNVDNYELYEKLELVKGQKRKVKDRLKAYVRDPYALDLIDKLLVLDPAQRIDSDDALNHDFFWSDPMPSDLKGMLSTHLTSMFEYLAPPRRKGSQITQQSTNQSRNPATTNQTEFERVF
Sequence (O60563 whole entry partner): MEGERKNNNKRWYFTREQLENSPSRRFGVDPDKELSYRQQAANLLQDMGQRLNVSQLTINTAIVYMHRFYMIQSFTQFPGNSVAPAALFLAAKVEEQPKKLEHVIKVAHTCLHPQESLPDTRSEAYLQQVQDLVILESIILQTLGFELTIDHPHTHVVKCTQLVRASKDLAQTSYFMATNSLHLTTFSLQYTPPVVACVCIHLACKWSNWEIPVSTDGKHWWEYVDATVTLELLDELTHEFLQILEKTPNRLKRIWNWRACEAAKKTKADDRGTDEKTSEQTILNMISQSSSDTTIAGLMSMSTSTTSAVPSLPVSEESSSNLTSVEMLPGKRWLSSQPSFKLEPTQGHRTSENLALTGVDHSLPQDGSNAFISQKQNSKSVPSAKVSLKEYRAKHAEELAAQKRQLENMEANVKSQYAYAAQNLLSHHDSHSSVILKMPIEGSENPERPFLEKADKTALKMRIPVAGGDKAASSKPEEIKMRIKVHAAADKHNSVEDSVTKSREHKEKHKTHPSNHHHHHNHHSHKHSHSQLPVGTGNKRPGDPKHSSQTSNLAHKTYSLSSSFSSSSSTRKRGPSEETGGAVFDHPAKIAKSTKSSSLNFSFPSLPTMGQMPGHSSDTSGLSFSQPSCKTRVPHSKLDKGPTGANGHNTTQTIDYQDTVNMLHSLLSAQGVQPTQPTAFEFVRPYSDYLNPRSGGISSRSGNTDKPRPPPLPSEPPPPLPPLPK
Procedure: as §1, with “detection.” for “detection. Compound Staurosporine having a structural formula of”
as §2

Structure (SMILES)	pIC50
COC(=O)Nc1ccc2c(-c3nc(O[C@H]4CCCNC4)ncc3C(F)(F)F)c[nH]c2c1Br [Example T-02]	< 6.30

target: CDK7/Cyclin H/MAT1 kinase (Homo sapiens (Human), UniProt P50613); assay: as above; type: biochemical; settings: 2 mM ATP; pre-incubated 0 and 60 minutes
Sequence (P50613 whole entry): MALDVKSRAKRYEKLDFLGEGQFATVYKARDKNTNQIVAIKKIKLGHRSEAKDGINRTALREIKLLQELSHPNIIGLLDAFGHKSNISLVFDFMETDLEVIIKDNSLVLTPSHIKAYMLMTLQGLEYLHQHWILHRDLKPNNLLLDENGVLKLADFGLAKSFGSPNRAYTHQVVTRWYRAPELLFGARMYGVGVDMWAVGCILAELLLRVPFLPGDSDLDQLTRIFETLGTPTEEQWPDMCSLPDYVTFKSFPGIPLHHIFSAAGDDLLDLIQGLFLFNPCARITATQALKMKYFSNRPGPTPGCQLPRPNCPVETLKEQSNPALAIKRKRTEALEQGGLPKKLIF
Sequence (P51946 whole entry partner): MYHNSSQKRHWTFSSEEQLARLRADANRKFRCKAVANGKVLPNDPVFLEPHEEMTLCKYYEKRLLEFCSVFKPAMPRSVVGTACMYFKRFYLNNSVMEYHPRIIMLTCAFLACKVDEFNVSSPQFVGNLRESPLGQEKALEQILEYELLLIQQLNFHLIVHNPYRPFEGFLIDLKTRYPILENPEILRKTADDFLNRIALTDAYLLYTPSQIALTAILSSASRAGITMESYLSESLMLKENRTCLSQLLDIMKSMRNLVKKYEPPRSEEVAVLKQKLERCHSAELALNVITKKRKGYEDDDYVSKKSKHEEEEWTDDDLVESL
Sequence (P51948 whole entry partner): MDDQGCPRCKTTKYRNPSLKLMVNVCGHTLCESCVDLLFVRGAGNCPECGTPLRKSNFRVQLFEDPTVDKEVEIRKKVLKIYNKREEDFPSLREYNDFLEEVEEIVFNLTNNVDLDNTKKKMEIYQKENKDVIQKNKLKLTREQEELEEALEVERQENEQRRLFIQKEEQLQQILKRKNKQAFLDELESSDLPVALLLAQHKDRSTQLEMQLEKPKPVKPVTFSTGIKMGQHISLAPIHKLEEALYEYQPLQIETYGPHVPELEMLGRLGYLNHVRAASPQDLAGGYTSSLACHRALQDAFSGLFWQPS
Procedure: IC50 values of the compounds for CDK7 kinase were detected in Wuxi Biortus Biosciences Co. Ltd.
as §1, with “detection.” for “detection. Compound Staurosporine having a structural formula of”
as §2

Structure (SMILES)	pIC50
COC(=O)Nc1ccc2c(-c3nc(N[C@H]4CCC[C@H](O)C4)ncc3C(F)(F)F)c[nH]c2c1Br [Compound T-50]	< 6.30
COC(=O)N(C)c1ccc2c(-c3nc(N[C@H]4CCC(C)(C)NC4)ncc3C(F)(F)F)c[nH]c2c1P(C)(C)=O [Compound T-103]	> 7.30
COC(=O)Nc1ccc2c(-c3nc(O[C@H]4CCCNC4)ncc3C(F)(F)F)c[nH]c2c1Br [Example T-02]	6.30 to 7.30
COC(=O)Nc1ccc2c(-c3nc(N[C@H]4CCC[C@H](O)C4)ncc3C(F)(F)F)c[nH]c2c1Br [Example T-30]	< 6.30
CN(C)C(=O)Oc1ccc2c(-c3nc(N[C@H]4CCC(C)(C)NC4)ncc3C(F)(F)F)c[nH]c2c1 [Example T-32]	6.30 to 7.30
CN(C)C(=O)n1cc(-c2nc(N[C@H]3CCC(C)(C)NC3)ncc2C(F)(F)F)c2ccc(O)cc21 [Example T-33]	6.30 to 7.30
COC(=O)Nc1ccc2c(-c3nc(N[C@H]4CCC5(CC5)NC4)ncc3C(F)(F)F)c[nH]c2c1OC [Example T-38]	> 7.30
COC(=O)Nc1ccc2c(-c3nc(N[C@H]4CCNC4)ncc3C(F)(F)F)c[nH]c2c1Br [Example T-39]	6.30 to 7.30
COC(=O)Nc1ccc2c(-c3nc(N[C@H]4CCCNC4)ncc3C(F)(F)F)cn(C)c2c1Br [Example T-40]	6.30 to 7.30
COC(=O)N(C)c1ccc2c(-c3nc(N[C@H]4CCCNC4)ncc3C(F)(F)F)cn(C)c2c1Br [Example T-41]	6.30 to 7.30
CCCOC(=O)Nc1ccc2c(-c3nc(N[C@H]4CCCNC4)ncc3C(F)(F)F)c[nH]c2c1Br [Example T-45]	6.30 to 7.30
O=C1OCCN1c1ccc2c(-c3nc(N[C@H]4CCNC4)ncc3C(F)(F)F)c[nH]c2c1Br [Example T-46]	6.30 to 7.30
O=C1CCCN1c1ccc2c(-c3nc(N[C@H]4CCNC4)ncc3C(F)(F)F)c[nH]c2c1Br [Example T-47]	6.30 to 7.30
O=C1OCCN1c1ccc2c(-c3nc(N[C@H]4CCCNC4)ncc3C(F)(F)F)c[nH]c2c1 [Example T-49]	> 7.30
COC(=O)Nc1ccc2c(-c3nc(N[C@H]4CC[C@@H](N)C4)ncc3C(F)(F)F)c[nH]c2c1Br [Example T-53]	< 6.30
COC(=O)Nc1ccc2c(-c3nc(N[C@H]4CC[C@H](N)C4)ncc3C(F)(F)F)c[nH]c2c1Br [Example T-54]	6.30 to 7.30
COC(=O)Nc1ccc2c(-c3nc(N[C@@H]4CC[C@H](N)C4)ncc3C(F)(F)F)c[nH]c2c1Br [Example T-55]	< 6.30
COC(=O)Nc1ccc2c(-c3nc(N[C@@H]4CC[C@@H](N)C4)ncc3C(F)(F)F)c[nH]c2c1Br [Example T-56]	6.30 to 7.30
COC(=O)Nc1ccc2c(-c3nc(N[C@@H]4CCC[C@H]4N)ncc3C(F)(F)F)c[nH]c2c1Br [Example T-57]	6.30 to 7.30
COC(=O)Nc1ccc2c(-c3nc(N[C@@H]4CCC[C@@H]4N)ncc3C(F)(F)F)c[nH]c2c1Br [Example T-58]	6.30 to 7.30

Structure (SMILES)	pIC50
COC(=O)Nc1ccc2c(-c3nc(N[C@H]4CCC[C@H]4N)ncc3C(F)(F)F)c[nH]c2c1Br [Example T-59]	6.30 to 7.30
COC(=O)Nc1ccc2c(-c3nc(N[C@@H]4CCNC4)ncc3C(F)(F)F)c[nH]c2c1Br [Example T-61]	6.30 to 7.30
COC(=O)Nc1ccc2c(-c3nc(N[C@H]4CCCNC4)ncc3Cl)c[nH]c2c1Br [Example T-71]	> 7.30
COC(=O)Nc1ccc2c(-c3nc(N[C@H]4CCC(C)(C)NC4)ncc3Cl)c[nH]c2c1Br [Example T-72]	> 7.30
COC(=O)Nc1ccc2c(-c3nc(N[C@H]4CCCNC4)ncc3C)c[nH]c2c1Br [Example T-76]	> 7.30
CCc1cnc(N[C@H]2CCCNC2)nc1-c1c[nH]c2c(Br)c(NC(=O)OC)ccc12 [Example T-77]	> 7.30
COC(=O)Nc1ccc2c(-c3nc(N[C@H]4CCCNC4)ncc3C(C)C)c[nH]c2c1Br [Example T-78]	6.30 to 7.30
COC(=O)Nc1ccc2c(-c3nc(N[C@H]4CCCNC4)ncc3C(F)(F)F)c[nH]c2c1C1CCOC1 (stereo partly shown) [Example T-83]	> 7.30
COC(=O)Nc1ccc2c(-c3nc(N[C@H]4CCC(C)(C)NC4)ncc3Cl)c[nH]c2c1C(F)(F)F [Example T-87]	> 7.30
COC(=O)Nc1ccc2c(-c3nc(N[C@H]4CCC(C)(C)NC4)ncc3C(F)(F)F)c[nH]c2c1SC(C)C [Example T-89]	> 7.30
C#Cc1c(NC(=O)OC)ccc2c(-c3nc(N[C@H]4CCC(C)(C)NC4)ncc3C(F)(F)F)c[nH]c12 [Example T-90]	> 7.30
COC(=O)Nc1ccc2c(-c3nc(N[C@H]4CCC(C)(C)NC4)ncc3C(F)(F)F)c[nH]c2c1OC1CCCC1 [Example T-92]	6.30 to 7.30
COC(=O)Nc1ccc2c(-c3nc(N[C@H]4CCC(C)(C)NC4)ncc3C(F)(F)F)c[nH]c2c1OC1CCC1 [Example T-93]	> 7.30
COC(=O)Nc1ccc2c(-c3nc(N[C@H]4CCC(C)(C)NC4)ncc3C(F)(F)F)c[nH]c2c1OC(C)C [Example T-94]	> 7.30
CCOc1c(NC(=O)OC)ccc2c(-c3nc(N[C@H]4CCC(C)(C)NC4)ncc3C(F)(F)F)c[nH]c12 [Example T-95]	> 7.30
COC(=O)Nc1ccc2c(-c3nc(N[C@H]4CCC(C)(C)NC4)ncc3C(F)(F)F)c[nH]c2c1CC(F)(F)F [Example T-97]	> 7.30
COC(=O)Nc1ccc2c(-c3nc(N[C@@H]4CNCC(C)(C)C4)ncc3C(F)(F)F)c[nH]c2c1C(F)(F)F [Example T-101]	> 7.30
COC(=O)Nc1ccc2c(-c3nc(N[C@H]4CCCN(C)C4)ncc3C(F)(F)F)c[nH]c2c1C(F)(F)F [Example T-111]	> 7.30
CCN[C@H]1CCC[C@@H]1Nc1ncc(C(F)(F)F)c(-c2c[nH]c3c(Br)c(NC(=O)OC)ccc23)n1 [Example T-115]	> 7.30
CCN[C@H]1CCC[C@@H]1Nc1ncc(C(F)(F)F)c(-c2c[nH]c3c(C(F)(F)F)c(NC(=O)OC)ccc23)n1 [Example T-117]	> 7.30

Structure (SMILES)	pIC50
COC(=O)Nc1ccc2c(-c3nc(N[C@H]4CCCNC4)ncc3C(F)(F)F)c[nH]c2c1OC(F)F [Example T-121]	> 7.30
COC(=O)Nc1ccc2c(-c3nc(N[C@H]4CCCNC4)ncc3Cl)c[nH]c2c1OC(F)(F)F [Example T-123]	> 7.30
COC(=O)Nc1ccc2c(-c3nc(NC4CNC5CC5C4)ncc3C(F)(F)F)c[nH]c2c1Cl (stereo not shown) [Example T-126]	> 7.30
COC(=O)Nc1ccc2c(-c3nc(N[C@H]4CC=C(C)NC4)ncc3C(F)(F)F)c[nH]c2c1OC [Example T-133]	6.30 to 7.30
COC(=O)Nc1ccc2c(-c3nc(N[C@H]4CC[C@H](C)NC4)ncc3C(F)(F)F)c[nH]c2c1OC [Example T-141]	6.30 to 7.30
COC(=O)Nc1ccc2c(-c3nc(N[C@H]4CC[C@H](C)NC4)ncc3C(F)(F)F)c[nH]c2c1Br [Example T-144]	6.30 to 7.30
COC(=O)Nc1ccc2c(-c3nc(N[C@H]4CCC(C)NC4)ncc3C(F)(F)F)c[nH]c2c1Cl (stereo partly shown) [Example T-145]	6.30 to 7.30
COC(=O)Nc1ccc2c(-c3nc(N[C@H]4CC[C@H](C)NC4)ncc3C(F)(F)F)c[nH]c2c1Cl [Example T-147]	6.30 to 7.30
COC(=O)Nc1ccc2c(-c3nc(N[C@H]4CC=C(C)NC4)ncc3C(F)(F)F)c[nH]c2c1Cl [Example T-148]	6.30 to 7.30
COC(=O)Nc1ccc2c(-c3nc(N[C@H]4CC[C@H](C)NC4)ncc3C(F)(F)F)c[nH]c2c1OCC(F)(F)F [Example T-152]	6.30 to 7.30
COC(=O)Nc1ccc2c(-c3nc(N[C@H]4CCCNC4)ncc3C(F)(F)F)c[nH]c2c1C(C)(C)O [Example T-157]	> 7.30
CC(=O)Nc1ccc2c(-c3nc(N[C@H]4CCCNC4)ncc3C(F)(F)F)c[nH]c2c1C(C)(C)O [Example T-158]	> 7.30
COC(=O)N(C)c1ccc2c(-c3nc(N[C@H]4CCCNC4)ncc3C(F)(F)F)c[nH]c2c1OC [Example T-166]	> 7.30
COC(=O)Nc1ccc2c(-c3nc(N[C@H]4CCCN(C)C4)ncc3C(F)(F)F)c[nH]c2c1OC [Example T-167]	> 7.30
COC(=O)N(C)c1ccc2c(-c3nc(N[C@H]4CCCNC4)ncc3C(F)(F)F)c[nH]c2c1C(C)(F)F [Example T-170]	> 7.30
COC(=O)Nc1ccc2c(-c3nc(N[C@H]4CCCN(C)C4)ncc3C(F)(F)F)c[nH]c2c1C(C)(F)F [Example T-171]	> 7.30
COC(=O)Nc1ccc2c(-c3nc(N[C@H]4CCCN(C)C4)ncc3C(F)(F)F)c[nH]c2c1C(F)(F)F [Example T-172]	> 7.30
COC(=O)Nc1ccc2c(-c3nc(N[C@H]4CCCN(C)C4)ncc3C(F)(F)F)c[nH]c2c1OC(F)F [Example T-173]	> 7.30
COC(=O)Nc1ccc2c(-c3nc(N[C@H]4CCCN(C)C4)ncc3C(F)(F)F)c[nH]c2c1C1CC1 [Example T-174]	> 7.30
COC(=O)N(C)c1ccc2c(-c3nc(N[C@H]4CCCNC4)ncc3C(F)(F)F)c[nH]c2c1C1CC1 [Example T-175]	> 7.30
